The record followed here is ChEMBL document CHEMBL4376813, “Design, synthesis and biological evaluation of AT1 receptor blockers derived from 6-substituted aminocarbonyl benzimidazoles” (Eur J Med Chem, 2019).

Experiment [1] in a line: Inhibition of [125I] Ang2 binding to AT1 receptor in Sprague-Dawley rat VSMC after 150 mins by gamma-counter method.
The subject of experiment [2] is Rattus norvegicus. Kind of experiment: […] activity in spontaneous hypertensive rat assessed as reduction in blood pressure at 10 mg/kg, po. In kind it is functional, organism-based.
For experiment [3], the system named is Rattus norvegicus. Kind of experiment: […] activity in spontaneous hypertensive rat assessed as reduction in blood pressure at 5 to 10 mg/kg, po. The format is functional, organism-based.
Experiment [4] deals with Rattus norvegicus. Kind of experiment: […] activity in spontaneous hypertensive rat assessed as maximum reducing response of mean blood pressure at 10 mg/kg, po. In kind it is functional.
In experiment [5] the test system is Rattus norvegicus. Kind of experiment: […] activity in spontaneous hypertensive rat at 10 mg/kg, po after 24 hrs. In kind it is functional, organism-based.

Calls of active or inactive are those of the source. The rule behind the calls is not given here.

What is called IC50 is the point on the concentration scale where inhibition reaches its midpoint. In general, Ki refers to a dissociation constant, usually derived from enzyme kinetics or from competition with a known ligand. The low end stands for a stronger hold on the target, the high end for a looser hold on the target.

Turning to `CCc1nc2c(C)cc(C(=O)NCCc3ccccc3)cc2n1Cc1ccc2c(ccn2-c2ccccc2C(=O)O)c1`, in experiment [1], the IC50 amounted to 12.1 nM and the affinity corresponds to a Ki of 8.8 nM.

For `CCCCc1nc(Cl)c(CO)n1Cc1ccc(-c2ccccc2-c2nnn[nH]2)cc1` [LOSARTAN], in experiment [1], the IC50 turned out to be 14.6 nM and the affinity corresponds to a Ki of 10.5 nM. For the same compound, in experiment [2], the outcome was Active.

Take `CCCCc1nc2c(C)cc(C(=O)NCCc3ccccc3)cc2n1Cc1ccc2c(ccn2-c2ccccc2C(=O)O)c1`: in experiment [1], the IC50 was found to be 3.7 nM and the affinity corresponds to a Ki of 2.7 nM. Besides, in experiment [3], the outcome was Active.

In experiment [1], `CCCc1nc2c(C)cc(C(=O)NCCc3ccccc3)cc2n1Cc1ccc2c(ccn2-c2ccccc2C(=O)O)c1` displayed an IC50 of 2.6 nM. The compound further gave an inhibitory constant (Ki) in experiment [1] of 1.9 nM. The result in experiment [3] and in experiment [5] was Active. In experiment [4], the Activity is given as 57.9 mmHg.

In the case of `CCc1nc2c(C)cc(C(=O)NCCc3ccccc3)cc2n1Cc1cccc2c1ccn2-c1ccccc1C(=O)O`, in experiment [1], the IC50 was determined as 4.8 nM and the Ki amounted to 3.5 nM.

Consider `CCCCc1nc2c(C)cc(C(=O)NCCc3ccccc3)cc2n1Cc1cccc2c1ccn2-c1ccccc1C(=O)O`, for which, in experiment [1], the IC50 amounted to 8.5 nM and the inhibition constant (Ki) was found to be 6.2 nM.

Consider `CCCc1nc2c(C)cc(C(=O)NCCc3ccccc3)cc2n1Cc1cccc2c1ccn2-c1ccccc1C(=O)O`, for which, in experiment [1], the IC50 came to 2.3 nM and the Ki was 1.7 nM. Moreover, in experiment [3], the result was Active. For the same compound, in experiment [4], the Activity amounted to 57.6 mmHg. The outcome in experiment [5] was Active.
